According to patent US8217035B2, “Pyrimidine derivatives used as PI-3-kinase inhibitors” (Novartis AG, priority 2006, dated 2012):

What was measured:
[1] = test system: pSer473 Akt in A2780 cells; experiment: pSer473 Akt assay to monitor PI3K pathway in A2780 cells (Biological Method 2, MSD); type: cell-based; details: Homo sapiens; inhibition of Akt phosphorylation, A2780 cells
Protocol: In this method, an assay for measuring the PI3K-mediated pSer473-Akt status after treatment with representative inhibitor compounds of the invention is described.
A2780 cells were cultured in DMEM supplemented with 10% FBS. L-glutamine, sodium pyruvate, and antibiotics. Cells were plated in the same medium at a density of 15,000 cells per well into 96 well tissue culture plates, with outside wells vacant, and allowed to adhere overnight.
Test compounds supplied in DMSO were diluted further into DMSO at 500 times the desired final concentrations before dilution into culture media to 2 times the final concentrations. Equal volumes of 2× compounds were added to the cells in 96 well plates and incubated at 37° C. for one hour. The media and compounds were then removed, the plates chilled and cells lysed in a lysis buffer (150 mM NaCl, 20 mM Tris pH 7.5, 1 mM EDTA, 1 mM EGTA, 1% Triton X-100) supplemented with phosphatase and protease inhibitors. After thorough mixing, lysates were transferred to both pSer473Akt and total Akt assay plates from Meso Scale Discovery (MSD), and incubated overnight with shaking at 4° C.
The assays were read on a SECTOR Imager 6000 instrument (Meso Scale Discovery). Ratios of the signal from pSer473Akt and total Akt assays were used to correct for any variability and the percent inhibition of pSer473Akt from the total signal seen in cells treated with compound versus DMSO alone was calculated and used to determine EC50 values for each compound.

[2] = target: PI3 kinase alpha (Homo sapiens, UniProt P42336); experiment: PI3K ATP depletion assay (Biological Method 1, Assay 3; KinaseGlo luminescence); type: biochemical; details: ATP depletion assay; read-out: PI3 Kinase Alpha, IC50
Outline: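 Compound in DMSO was mixed with 10 nM PI3 kinase and 5 μg/mL phosphatidylinositol, and the reaction was started with 2 μM ATP. It ran to about 50% ATP depletion and was stopped with KinaseGlo.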

[3] = test system: A2780 ovarian cancer cells; experiment: Cellular proliferation in A2780 cells, Cell Titer Glo (Biological Method 4); type: cell-based; details: Homo sapiens; ovarian cancer cell line A2780
Outline: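 Viability after 72 h compound exposure (37 °C, 5% CO2) was read by Cell Titer Glo and an EC50 derived, each condition in duplicate. A2780 ovarian cells had been plated at 1,000 per well in DMEM/10% FBS at least 2 h beforehand.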

PI3 kinase alpha, sequence (P42336 whole entry): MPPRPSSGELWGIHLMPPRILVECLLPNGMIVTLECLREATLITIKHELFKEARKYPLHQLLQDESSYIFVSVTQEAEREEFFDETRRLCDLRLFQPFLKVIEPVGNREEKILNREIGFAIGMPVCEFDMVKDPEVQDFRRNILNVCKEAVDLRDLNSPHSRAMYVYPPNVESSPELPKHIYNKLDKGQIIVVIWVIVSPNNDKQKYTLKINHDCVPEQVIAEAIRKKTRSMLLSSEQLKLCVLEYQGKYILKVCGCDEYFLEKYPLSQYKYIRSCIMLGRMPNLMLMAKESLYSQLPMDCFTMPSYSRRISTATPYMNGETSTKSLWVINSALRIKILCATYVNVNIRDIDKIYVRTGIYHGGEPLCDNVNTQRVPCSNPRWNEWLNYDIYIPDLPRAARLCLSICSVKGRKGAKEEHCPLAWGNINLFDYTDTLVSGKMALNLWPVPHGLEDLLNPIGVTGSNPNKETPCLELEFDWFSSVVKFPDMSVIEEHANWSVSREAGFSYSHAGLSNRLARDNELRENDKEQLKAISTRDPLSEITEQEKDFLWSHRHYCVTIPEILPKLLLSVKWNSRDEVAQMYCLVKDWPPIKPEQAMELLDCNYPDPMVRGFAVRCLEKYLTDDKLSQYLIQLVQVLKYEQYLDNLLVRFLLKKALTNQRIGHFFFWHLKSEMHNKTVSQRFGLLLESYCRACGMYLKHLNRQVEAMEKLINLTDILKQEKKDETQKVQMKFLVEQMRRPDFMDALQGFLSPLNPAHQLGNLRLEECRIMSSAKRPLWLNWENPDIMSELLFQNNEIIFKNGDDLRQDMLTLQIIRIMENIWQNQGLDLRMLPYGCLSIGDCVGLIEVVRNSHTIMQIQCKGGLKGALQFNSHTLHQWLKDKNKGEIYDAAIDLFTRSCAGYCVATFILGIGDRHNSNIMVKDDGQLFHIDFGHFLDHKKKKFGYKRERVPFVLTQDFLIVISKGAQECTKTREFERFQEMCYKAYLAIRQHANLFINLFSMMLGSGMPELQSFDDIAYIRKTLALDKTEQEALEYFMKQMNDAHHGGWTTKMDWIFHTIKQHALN
PI3 kinase alpha, sequence (P27986 whole entry partner): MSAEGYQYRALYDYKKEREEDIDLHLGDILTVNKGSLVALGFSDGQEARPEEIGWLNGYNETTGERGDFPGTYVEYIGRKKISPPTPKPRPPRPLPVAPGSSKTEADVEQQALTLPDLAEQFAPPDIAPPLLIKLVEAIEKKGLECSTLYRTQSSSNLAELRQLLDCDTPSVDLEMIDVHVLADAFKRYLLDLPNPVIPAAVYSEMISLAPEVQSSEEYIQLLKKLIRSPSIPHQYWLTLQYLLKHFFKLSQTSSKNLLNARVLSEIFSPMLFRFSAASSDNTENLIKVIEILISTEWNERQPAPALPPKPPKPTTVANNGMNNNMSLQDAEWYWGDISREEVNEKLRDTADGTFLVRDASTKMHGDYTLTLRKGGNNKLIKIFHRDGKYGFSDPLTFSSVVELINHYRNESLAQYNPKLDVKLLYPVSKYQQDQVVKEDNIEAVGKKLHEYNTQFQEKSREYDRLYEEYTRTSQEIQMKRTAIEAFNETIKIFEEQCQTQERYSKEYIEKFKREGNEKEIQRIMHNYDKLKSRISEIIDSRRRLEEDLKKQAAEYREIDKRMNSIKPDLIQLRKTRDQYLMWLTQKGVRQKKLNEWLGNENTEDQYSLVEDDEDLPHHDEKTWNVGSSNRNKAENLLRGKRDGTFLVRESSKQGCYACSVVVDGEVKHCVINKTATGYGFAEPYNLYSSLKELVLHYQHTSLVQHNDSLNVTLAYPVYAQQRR

Structure (SMILES)	EC50 [1] [µM]	IC50 [2] [µM]	EC50 [3] [µM]
Cc1c(Nc2ncc(C#N)s2)nc(N2CCOCC2)nc1-c1cnc(N)nc1 [Compound 71]	< 1	< 1	< 1
CC(C)C(=O)N1CCC[C@H](Oc2cc(-c3cnc(N)nc3N)nc(N3CCOCC3)n2)C1 [Compound 72]	< 1	< 1	< 10
COc1ccc(Nc2cc(-c3cnc(N)nc3N)nc(N3CCOCC3)n2)cn1 [Compound 73]	< 1	< 1	< 10
CS(=O)(=O)N1CCC(Oc2cc(-c3cnc(N)nc3C(F)(F)F)nc(N3CCOCC3)n2)CC1 [Compound 74]	< 1	< 1	< 1
COC(=O)N1CCC[C@H](Oc2cc(-c3cnc(N)nc3N)nc(N3CCOCC3)n2)C1 [Compound 75]	< 1	< 1	< 10
CS(=O)(=O)c1ccc(Nc2cc(-c3cnc(N)nc3C(F)(F)F)nc(N3CCOCC3)n2)cn1 [Compound 78]	< 1	< 1	< 1
CC(C)N1CCC(Oc2cncc(-c3cc(-c4cnc(N)cc4C(F)(F)F)nc(N4CCOCC4)n3)c2)CC1 [Compound 79]	< 1	< 1	< 10
COC(=O)N1CCC(Oc2cc(-c3cnc(N)nc3N)nc(N3CCOCC3)n2)CC1 [Compound 81]	< 1	< 1	< 1
Nc1ccc(-c2cc(Nc3ccc4ncccc4c3)nc(N3CCOCC3)n2)cn1 [Compound 82]	< 1	< 1	< 1
Nc1cc(C(F)(F)F)c(-c2cc(OC3CCN(C(=O)c4ccccc4)CC3)nc(N3CCOCC3)n2)cn1 [Compound 83]	< 1	< 1	< 10
CC(C)N1CC[C@@H](Oc2ccc(Nc3cc(-c4cnc(N)cc4C(F)(F)F)nc(N4CCOCC4)n3)cn2)C1 [Compound 86]	< 1	< 1	< 1
Nc1ncc(-c2cc(Nc3ccccc3F)nc(N3CCOCC3)n2)cn1 [Compound 87]	< 1	< 1	< 10
Nc1cc(C(F)(F)F)c(-c2cc(-c3cncc(OC4CCNCC4)c3)nc(N3CCOCC3)n2)cn1 [Compound 88]	< 1	< 1	< 10
CS(=O)(=O)c1cc(Nc2cc(-c3cnc(N)cc3C(F)(F)F)nc(N3CCOCC3)n2)ccn1 [Compound 90]	< 1	< 1	< 1
CS(=O)(=O)c1cccc(-c2cc(-c3cnc(N)cc3C#N)nc(N3CCOCC3)n2)c1 [Compound 92]	< 1	< 1	< 1
CC(C)N1CCC(Oc2ccc(Nc3cc(-c4cnc(N)cc4C(F)(F)F)nc(N4CCOCC4)n3)cn2)C1 (stereo not drawn) [Compound 93]	< 1	< 1	< 1
N#Cc1cc(N)ncc1-c1cc(Nc2ccncc2C(F)(F)F)nc(N2CCOCC2)n1 [Compound 94]	< 1	< 1	< 1
CS(=O)(=O)c1cccc(-c2cc(-c3cnc(N)cc3C(F)(F)F)nc(N3CCOCC3)n2)c1 [Compound 95]	< 1	< 1	< 1
Nc1ncc(-c2cc(OC3CCN(C(=O)OC4CCCC4)CC3)nc(N3CCOCC3)n2)c(N)n1 [Compound 97]	< 1	< 1	< 1
CCc1c(Nc2cnc3ccccc3c2)nc(N2CCOCC2)nc1-c1cnc(N)nc1 [Compound 98]	< 1	< 1	< 1

Second part, the compound after the results:

EC50 [1] [µM]	IC50 [2] [µM]	EC50 [3] [µM]	Structure (SMILES)
< 1	< 1	< 1	Nc1ncc(-c2cc(Nc3ccc4nccnc4c3)nc(N3CCOCC3)n2)cn1 [Compound 38]
< 1	< 1	< 1	Nc1ncc(-c2cc(O[C@H]3CCOC3)nc(N3CCOCC3)n2)c(=O)[nH]1 [Compound 39]
< 1	< 1	< 1	CCN(CC)Cc1cnc(Nc2cc(-c3cnc(N)nc3C(F)(F)F)nc(N3CCOCC3)n2)s1 [Compound 40]
< 1	< 1	< 1	CC(C)N1CCC(Oc2ccc(Nc3cc(-c4cnc(N)nc4C(F)(F)F)nc(N4CCOCC4)n3)cn2)CC1 [Compound 41]
< 1	< 1	< 1	Cc1c(Nc2ccc(OC3CCN(C)CC3)nc2)nc(N2CCOCC2)nc1-c1cnc(N)nc1 [Compound 42]
< 1	< 1	< 1	Nc1ncc(-c2cc(Nc3ccncc3C(F)(F)F)nc(N3CCOCC3)n2)cn1 [Compound 43]
< 1	< 1	< 1	Nc1ncc(-c2cc(Nc3ccncc3)nc(N3CCOCC3)n2)cn1 [Compound 44]
< 1	< 1	< 1	Nc1ncc(-c2cc(Nc3ccc4ncccc4c3)nc(N3CCOCC3)n2)cn1 [Compound 46]
< 1	< 1	< 1	Nc1ncc(-c2cc(OC3CCN(C(=O)OC4CCCC4)CC3)nc(N3CCOCC3)n2)c(=O)[nH]1 [Compound 47]
< 1	< 1	< 1	Nc1ncc(-c2cc(OC3CCN(C(=O)c4ccccc4)CC3)nc(N3CCOCC3)n2)c(=O)[nH]1 [Compound 48]
< 1	< 1	< 1	CC(C)C(=O)N1CCC(Oc2cc(-c3cnc(N)[nH]c3=O)nc(N3CCOCC3)n2)CC1 [Compound 49]
< 1	< 1	< 1	Nc1ncc(-c2cc(OC3CCOCC3)nc(N3CCOCC3)n2)c(=O)[nH]1 [Compound 50]
< 1	< 1	< 1	CN1CCN(c2ccc(Nc3cc(-c4cnc(N)nc4)nc(N4CCOCC4)n3)cn2)CC1 [Compound 51]
< 1	< 1	< 1	Cc1cc(Nc2cc(-c3cnc(N)nc3C(F)(F)F)nc(N3CCOCC3)n2)ccn1 [Compound 52]
< 1	< 1	< 1	Cc1cc(Nc2cc(-c3cnc(N)nc3N)nc(N3CCOCC3)n2)ccn1 [Compound 53]
< 1	< 1	< 1	COc1cccc2ncc(Nc3cc(-c4cnc(N)nc4C(F)(F)F)nc(N4CCOCC4)n3)cc12 [Compound 54]
< 1	< 1	< 1	Nc1ncc(-c2cc(O[C@@H]3CCOC3)nc(N3CCOCC3)n2)c(=O)[nH]1 [Compound 56]
< 1	< 1	< 1	COc1cncc(-c2cc(-c3cnc(N)nc3)nc(N3CCOCC3)n2)c1 [Compound 57]
< 1	< 1	< 1	CS(=O)(=O)N1CCC(Oc2cc(-c3cnc(N)[nH]c3=O)nc(N3CCOCC3)n2)CC1 [Compound 58]
< 1	< 1	< 1	CCN(CC)Cc1cnc(Nc2cc(-c3cnc(N)nc3N)nc(N3CCOCC3)n2)s1 [Compound 59]
< 1	< 1	< 1	COc1ccc2cc(Nc3cc(-c4cnc(N)nc4)nc(N4CCOCC4)n3)cnc2c1 [Compound 60]
< 1	< 1	< 1	CN1CCC(Oc2ccc(Nc3cc(-c4cnc(N)nc4C(F)(F)F)nc(N4CCOCC4)n3)cn2)CC1 [Compound 62]
< 1	< 1	< 1	COC(=O)N1CCC[C@@H](Oc2cc(-c3cnc(N)nc3N)nc(N3CCOCC3)n2)C1 [Compound 63]
< 1	< 1	< 1	Nc1ncc(-c2cc(Nc3ccc(Oc4cccnc4)nc3)nc(N3CCOCC3)n2)cn1 [Compound 64]
< 1	< 1	< 1	Nc1ncc(-c2cc(N3CCOc4ccccc43)nc(N3CCOCC3)n2)cn1 [Compound 65]
< 1	< 1	< 1	Nc1ncc(-c2cc(Nc3ccc4c(c3)OCCO4)nc(N3CCOCC3)n2)cn1 [Compound 67]
< 1	< 1	< 1	CC(C)N1CCC(Oc2ccc(Nc3cc(-c4cnc(N)nc4N)nc(N4CCOCC4)n3)cn2)CC1 [Compound 68]
< 1	< 1	< 1	CS(=O)(=O)Nc1ncccc1-c1cc(-c2cnc(N)nc2C(F)(F)F)nc(N2CCOCC2)n1 [Compound 69]
< 1	< 1	< 1	COC(=O)N1CCC(Oc2cc(-c3cnc(N)nc3C(F)(F)F)nc(N3CCOCC3)n2)CC1 [Compound 70]
